One test concerns the target c-Cbl (Homo sapiens (Human), UniProt P22681). The experiment in a line: C-Cbl LCK Ub TR-FRET assay (C-cbl Lck HTRF). It counts as biochemical. In short, it runs like this: (§1)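 Signal is read once the detection mix has stood 20 min at ambient temperature. Curves are anchored by DMSO as maximum and by omission of LCK as minimum.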
(TR-FRET usually uses a lanthanide donor and a delayed reading to cut background.)

Test [1] concerns the target Human Cbl-b (residues 40-426) (Homo sapiens (Human), UniProt Q13191). The test can be described thus: Cbl-b SPR assay. Type of test: binding. Particulars: for Fold of selectivity: C-cbl SPR Kd vs Cbl-b SPR Kd; for pKd: SPR, 20° C. A digest of the protocol:
(§2)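 Values derive from a 1:1 model fitted to multicycle kinetics on captured protein (1300-1500 RU), using six 2-fold concentrations, 60 s contact and dissociation of 120-1200 s. In the chaser format, kd comes from a single-exponential fit of % site occupancy over time.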
Background: In SPR one partner is held on a chip, and binding of the other changes the refractive index at the surface.

The next test deals with c-Cbl (residues 47-435) (Homo sapiens (Human), UniProt P22681). The test can be described thus: c-Cbl SPR assay. It counts as binding. The settings on record: 20° C. A digest of the protocol: as §2
Sequence of c-Cbl (residues 47-435) (P22681 47-435): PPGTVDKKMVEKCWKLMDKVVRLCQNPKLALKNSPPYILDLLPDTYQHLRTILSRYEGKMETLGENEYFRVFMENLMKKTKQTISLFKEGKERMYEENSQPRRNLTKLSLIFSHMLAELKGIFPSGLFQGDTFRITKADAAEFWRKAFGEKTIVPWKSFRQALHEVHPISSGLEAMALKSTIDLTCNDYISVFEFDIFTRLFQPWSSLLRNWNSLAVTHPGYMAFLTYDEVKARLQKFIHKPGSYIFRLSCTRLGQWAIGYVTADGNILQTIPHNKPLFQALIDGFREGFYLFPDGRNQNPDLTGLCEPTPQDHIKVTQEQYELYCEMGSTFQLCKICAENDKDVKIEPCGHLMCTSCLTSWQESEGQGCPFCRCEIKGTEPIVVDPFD
The target of a further test is Cbl-b (Homo sapiens (Human), UniProt Q13191). The experiment in a line: Cbl-b LCK Ub TR-FRET assay (Cbl-b Lck HTRF). The settings on record: for pIC50: Cbl-b LCK Ub TR-FRET; for fold-selectivity (Cbl-b over C-cbl): ratio C-cbl Lck HTRF IC50 / Cbl-b Lck HTRF IC50. Type of test: biochemical. A digest of the protocol:
as §1

pIC50, pKd: −log10 of the molar value.

A word on the pIC50: it is −log10 of the IC50, conventionally taken in molar units. A low value points to a high IC50. The pKd is the negative decadic logarithm of the Kd, by convention in mol/L. Low readings indicate a large Kd, high ones a small Kd.

Sequence of c-Cbl (P22681 47-435): as above
Sequence of Cbl-b (Q13191 40-426): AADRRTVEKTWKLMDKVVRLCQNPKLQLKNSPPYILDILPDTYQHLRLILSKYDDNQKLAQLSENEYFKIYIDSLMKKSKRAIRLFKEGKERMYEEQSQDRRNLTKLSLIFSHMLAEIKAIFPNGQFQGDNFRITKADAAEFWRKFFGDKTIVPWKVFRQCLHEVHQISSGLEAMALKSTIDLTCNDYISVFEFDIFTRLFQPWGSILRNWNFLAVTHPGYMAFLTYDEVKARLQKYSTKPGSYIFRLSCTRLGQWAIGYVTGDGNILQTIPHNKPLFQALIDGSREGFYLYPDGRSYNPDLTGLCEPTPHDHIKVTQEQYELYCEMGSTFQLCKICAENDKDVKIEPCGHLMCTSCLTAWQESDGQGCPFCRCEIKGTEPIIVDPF
Sequence of Human Cbl-b (residues 40-426) (Q13191 40-426): as above

In the case of `C[C@@H]1C[C@@](c2cccc(N3Cc4c(cc(CNC5(C)CCC5)cc4C(F)(F)F)C3=O)c2)(c2nncn2C)O1` [Compound 124, 2-(3-((2R,4R)-4-methyl-2-(4-methyl-4H-1,2,4-triazol-3-yl)oxetan-2-yl)phenyl)-6-(((1-methylcyclobutyl)amino)methyl)-4-(trifluoromethyl)isoindolin-1-one], the results for the pIC50 against c-Cbl and against Cbl-b were 7.00 and 7.25, respectively. The molecule further gave a Fold of selectivity in test [1] of 3.9×. Further, the values for the pKd (in test [1]; at c-Cbl (residues 47-435)) were 7.77 and 7.17, respectively. Further, the “fold-selectivity (Cbl-b over C-cbl)” value on Cbl-b is recorded as 1.9x.

On to `C[C@H]1C[C@](c2cccc(N3Cc4c(cc(CNC5(C)CCC5)cc4C(F)(F)F)C3=O)c2)(c2nncn2C)O1` [Compound 125, 2-(3-((2S,4S)-4-methyl-2-(4-methyl-4H-1,2,4-triazol-3-yl)oxetan-2-yl)phenyl)-6-(((1-methylcyclobutyl)amino)methyl)-4-(trifluoromethyl)isoindolin-1-one], for which the pIC50 against c-Cbl was 5.64. Besides, in test [1], the Fold of selectivity worked out at 11× and the pKd is 6.89. On c-Cbl (residues 47-435), the pKd was 5.82. On Cbl-b, the pIC50 is 6.39 and the “fold-selectivity (Cbl-b over C-cbl)” value was found to be 5.7x.

On to `C[C@@H]1C[C@](c2cccc(N3Cc4c(cc(CNC5(C)CCC5)cc4C(F)(F)F)C3=O)c2)(c2nncn2C)O1` [Compound 126, 2-(3-((2S,4R)-4-methyl-2-(4-methyl-4H-1,2,4-triazol-3-yl)oxetan-2-yl)phenyl)-6-(((1-methylcyclobutyl)amino)methyl)-4-(trifluoromethyl)isoindolin-1-one], for which the pIC50 at c-Cbl was 6.60. Also, in test [1], the Fold of selectivity was 6.0× and the pKd is 7.92. The pKd at c-Cbl (residues 47-435) was 6.89. At Cbl-b, the pIC50 is 7.12 and the “fold-selectivity (Cbl-b over C-cbl)” value was 3.4 x.

On c-Cbl, `Cl.Cn1cnnc1[C@]1(c2cccc(N3Cc4c(cc(CNC5(C)CCC5)cc4C(F)(F)F)C3=O)c2)C[C@@H](Cl)C1` [Compound 137, 2-(3-((1r,3r)-3-chloro-1-(4-methyl-4H-1,2,4-triazol-3-yl)cyclobutyl)phenyl)-6-(((1-methylcyclobutyl)amino)methyl)-4-(trifluoromethyl)isoindolin-1-one hydrochloride] gave a pIC50 of 8.07. In addition, in test [1], the Fold of selectivity came to 8.4× and the pKd was 9.57. Besides, on c-Cbl (residues 47-435), the pKd was 8.68. Also, on Cbl-b, the pIC50 was 8.21 and the “fold-selectivity (Cbl-b over C-cbl)” value is given as 1.4x.

As for `Cn1cnnc1[C@]1(c2cccc(N3Cc4c(cc(CNC5(C)CCC5)cc4C(F)(F)F)C3=O)c2)C[C@H](Cl)C1` [Compound 138, 2-(3-((1s,3s)-3-chloro-1-(4-methyl-4H-1,2,4-triazol-3-yl)cyclobutyl)phenyl)-6-(((1-methylcyclobutyl)amino)methyl)-4-(trifluoromethyl)isoindolin-1-one], at c-Cbl, the pIC50 was 8.38. In test [1], this molecule showed a Fold of selectivity of 5.6× and a pKd of 9.12. Moreover, the pKd at c-Cbl (residues 47-435) was 8.38. Besides, on Cbl-b, the pIC50 is 8.39 and the “fold-selectivity (Cbl-b over C-cbl)” value came to 1.0x.

On to `Cn1cnnc1[C@H](c1cccc(N2Cc3c(cc(CNC4(C)CCC4)cc3C(F)(F)F)C2=O)c1)[C@H]1CCOC1` [Compound 169, 2-(3-((S)-(4-methyl-4H-1,2,4-triazol-3-yl)((R)-tetrahydrofuran-3-yl)methyl)phenyl)-6-(((1-methylcyclobutyl)amino)methyl)-4-(trifluoromethyl)isoindolin-1-one], for which the pIC50 against c-Cbl was 6.47; against Cbl-b, 7.14. This molecule also returned a Fold of selectivity in test [1] of 2.7×. For the same molecule, the pKd in test [1] is 7.18; on c-Cbl (residues 47-435), 6.74. At Cbl-b, the “fold-selectivity (Cbl-b over C-cbl)” value is 4.8x.

Regarding `Cn1cnnc1[C@]1(c2cc(NC3CCCC3)cc(N3Cc4c(cc(CNC5(C)CCC5)cc4C(F)(F)F)C3=O)c2)C[C@H](C)C1` [Compound 177, 2-(3-(cyclopentylamino)-5-((1s,3s)-3-methyl-1-(4-methyl-4H-1,2,4-triazol-3-yl)cyclobutyl)phenyl)-6-(((1-methylcyclobutyl)amino)methyl)-4-(trifluoromethyl)isoindolin-1-one], the pIC50 was 6.74 against c-Cbl and 7.23 against Cbl-b. The same molecule registered a Fold of selectivity in test [1] of 10×. Also, the pKd in test [1] was 8.00; at c-Cbl (residues 47-435), 7.00. In addition, the “fold-selectivity (Cbl-b over C-cbl)” value on Cbl-b stood at 2.8x.

As to `CCO[C@H]1C[C@@](c2cccc(N3Cc4c(cc(CNC5(C)CCC5)cc4C(F)(F)F)C3=O)c2)(c2nncn2C)C1` [Compound 178, 2-(3-((1s,3s)-3-ethoxy-1-(4-methyl-4H-1,2,4-triazol-3-yl)cyclobutyl)phenyl)-6-(((1-methylcyclobutyl)amino)methyl)-4-(trifluoromethyl)isoindolin-1-one], the figures for the pIC50 at c-Cbl and against Cbl-b were 7.07 and 7.48, respectively. The molecule further displayed a Fold of selectivity in test [1] of 4.6×. In addition, the pKd was 8.24 in test [1] and 7.52 on c-Cbl (residues 47-435). At Cbl-b, the “fold-selectivity (Cbl-b over C-cbl)” value was 2.5x.

On to `CCO[C@H]1C[C@](c2cccc(N3Cc4c(cc(CNC5(C)CCC5)cc4C(F)(F)F)C3=O)c2)(c2nncn2C)C1` [Compound 179, 2-(3-((1r,3r)-3-ethoxy-1-(4-methyl-4H-1,2,4-triazol-3-yl)cyclobutyl)phenyl)-6-(((1-methylcyclobutyl)amino)methyl)-4-(trifluoromethyl)isoindolin-1-one], for which the pIC50 against c-Cbl is 6.96; at Cbl-b, 7.52. Besides, the Fold of selectivity in test [1] was determined as 13×. For the same molecule, the pKd in test [1] is 8.34; on c-Cbl (residues 47-435), 7.24. Moreover, the “fold-selectivity (Cbl-b over C-cbl)” value at Cbl-b amounted to 3.4x.

At c-Cbl, `CO[C@H]1C[C@](c2cccc(N3Cc4c(cc(CN5CCN(C)C[C@@H]5C(C)C)cc4C(F)(F)F)C3=O)c2)(c2nncn2C)C1` [Compound 180, 6-(((S)-2-isopropyl-4-methylpiperazin-1-yl)methyl)-2-(3-((1r,3S)-3-methoxy-1-(4-methyl-4H-1,2,4-triazol-3-yl)cyclobutyl)phenyl)-4-(trifluoromethyl)isoindolin-1-one] gave a pIC50 of 7.13. In test [1], this molecule showed a Fold of selectivity of 10.2× and a pKd of 8.46. Further, on c-Cbl (residues 47-435), the pKd was 7.44. In addition, on Cbl-b, the pIC50 was 7.74 and the “fold-selectivity (Cbl-b over C-cbl)” value came to 3.7x.

Take `CCOc1cc(N2Cc3c(cc(CNC4(C)CCC4)cc3C(F)(F)F)C2=O)cc([C@]2(c3nncn3C)C[C@@H](C)C2)c1` [Compound 181, 2-(3-ethoxy-5-((1s,3s)-3-methyl-1-(4-methyl-4H-1,2,4-triazol-3-yl)cyclobutyl)phenyl)-6-(((1-methylcyclobutyl)amino)methyl)-4-(trifluoromethyl)isoindolin-1-one]: the pIC50 against c-Cbl was 8.08. In test [1], this molecule gave a Fold of selectivity of 2.0× and a pKd of 9.43. The molecule further had a pKd on c-Cbl (residues 47-435) of 9.13. At Cbl-b, the pIC50 was 8.01 and the “fold-selectivity (Cbl-b over C-cbl)” value is on record as 0.85x.

The values above are taken from patent publication US12187709B2 (Genentech, Inc., priority 2021, dated 2025).
